Data: PubChem BioAssay (NCI)
Where “and” joins values, the source holds several entries; their conditions need not be identical. Identical values can stand only once.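 Where inhibition never reached the appropriate level, the endpoint shown equals the highest concentration tested. Otherwise, values were interpolated linearly from a five-concentration, 48-hour dose response in 96-well plates. GI50: concentration for 50% inhibition of growth. TGI: concentration producing complete growth inhibition.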

Columns and labels:
Assay in all cases: growth of human tumour cells (NCI), 48 h
[1] = tested on: KM12 colon
[2] = tested on: CAKI-1 renal
[3] = tested on: NCI-H460 lung
[4] = tested on: OVCAR-4 ovarian
[5] = tested on: SW-620 colon
[6] = tested on: UO-31 renal
[7] = tested on: LXFL 529 NSCLC
[8] = tested on: UACC-62 melanoma
[9] = tested on: HOP-92 NSCLC
[10] = tested on: HOP-62 NSCLC

Compound | TGI [1] | TGI [2] | TGI [3] | TGI [4] | TGI [5] | TGI [6] | TGI [7] [µM] | TGI [8] | TGI [9] | TGI [10] | GI50 [1] | GI50 [2] | GI50 [3] | GI50 [4] | GI50 [5] | GI50 [6] | GI50 [8] | GI50 [9] | GI50 [10]
N=C(N)n1ncc(Cl)c(Cl)c1=O | 20.2 µM | 3.31 µM | 31.4 µM | 3.41 µM | 3.75 µM | 4.93 µM | 3.31 | 5.76 µM | 4.42 µM | – | – | – | – | – | – | – | – | – | –
C=C1C(=O)OC2CCCCC3OC3C12 (stereo not drawn) | 31.8 µM | 9.83 µM | 28.3 µM | 28.7 µM | 13.3 µM | 28.8 µM | 20.2 | 13.7 µM | – | 41.3 µM | – | – | – | – | – | – | – | – | –
COc1ccc(/C=C2\N=C(c3ccccc3)OC2=O)c(OCc2ccccc2)c1 | > 100 µM | > 100 µM | > 100 µM | 47.7 µM | > 100 µM | > 100 µM | > 100 | 50 µM | – | 45.2 µM | – | – | – | – | – | – | – | – | –
CCN1CCC[C@H]1c1cc(O)c2c(c1OC)C[C@H]1C[C@H]3[C@H](N)C(=O)C(C(N)=O)=C(O)[C@@]3(O)C(=O)C1=C2O | 13.2 µM | 0.62 µM | 1.9 µM | 2.73 µM | 3.24 µM | 2.93 µM | – | 1.3 µM | 3.52 µM | 1.67 µM | 0.0998 µM | 0.0293 µM | 0.0602 µM | 0.0675 µM | 0.0536 µM | 0.0528 µM | 0.0668 µM | 0.0522 µM | 0.0517 µM
Fc1ccc(-c2nc(-c3nc4ccc(Cl)cc4[nH]3)cc3c2[nH]c2ccccc23)cc1 | 13.7 µM | 24 µM | 10.5 µM | 17.2 µM | 19.2 µM | 10.7 µM | – | 6.9 µM | 6.18 µM | 16.5 µM | 3.46 µM | 3.22 µM | 2.97 µM | 4.81 µM | 4 µM | 2.4 µM | 2.28 µM | 1.56 µM | 3.87 µM
CCOC(=O)CC(=O)ON(C)C(=O)Cc1ccccc1 | > 100 µM | > 100 µM | > 100 µM | > 100 µM | > 100 µM | > 100 µM | > 100 | > 100 µM | – | > 100 µM | – | – | – | – | – | – | – | – | –
Cc1ccc2nc3c(Cl)cc(=O)cc-3sc2c1 | – | 71.1 µM | 83.5 µM | 30.7 µM | 43.5 µM | > 100 µM | 63.1 | 31.8 µM | 36.7 µM | – | – | – | – | – | – | – | – | – | –
O=C(CC(=O)N1N=C(n2ccc3ccccc32)CC1c1ccccc1)Nc1cccc(Cl)c1 (stereo not drawn) | > 100 µM | – | > 100 µM | > 100 µM | > 100 µM | > 100 µM | > 100 | > 100 µM | > 100 µM | > 100 µM | – | – | – | – | – | – | – | – | –
Nc1nc(-c2ccccc2)c(-c2ccccc2)c(-c2nc(N)nc(-c3ccccc3)c2-c2ccccc2)n1 | > 100 µM | > 100 µM | > 100 µM | > 100 µM | > 100 µM | > 100 µM | – | > 100 µM | > 100 µM | > 100 µM | – | – | – | – | – | – | – | – | –
COc1cc(/C=C/C(=O)C(=Cc2ccc(F)c(F)c2)C(=O)/C=C/c2ccc(O)c(OC)c2)ccc1O | 3.19 µM | 20.2 µM | 6.96 µM | 10.7 µM | 3.62 µM | 16.8 µM | – | 5.14 µM | 6.05 µM | 9.38 µM | 1.64 µM | 3.51 µM | 2.68 µM | 2.96 µM | 1.84 µM | 3.04 µM | 1.93 µM | 2.51 µM | 2.87 µM
CSC1=Nc2c(c(C)c(-c3ccccc3)n2COC(CO)CO)C2=NC(=O)C(C)N12 (stereo not drawn) | > 100 µM | > 100 µM | > 100 µM | > 100 µM | > 100 µM | > 100 µM | – | > 100 µM | > 100 µM | > 100 µM | > 100 µM | > 100 µM | > 100 µM | > 100 µM | > 100 µM | > 100 µM | 70.1 µM | > 100 µM | > 100 µM
O=C(c1cc2ccccc2[nH]1)C(O)(c1cc2ccccc2[nH]1)c1cc2ccccc2[nH]1 | > 246 µM | > 246 µM | > 246 µM | – | > 246 µM | – | > 246 | > 246 µM | > 246 µM | > 246 µM | – | – | – | – | – | – | – | – | –
CCOc1ccc(Cc2nccc3cc(OCC)c(OCC)cc23)cc1OCC | 24.5 µM | 41 µM | 21.8 µM | 26 µM | 24.1 µM | 32.4 µM | – | 16.5 µM | 8.94 µM | 20.9 µM | 4.85 µM | 4.53 µM | 3.2 µM | 9.74 µM | 3.68 µM | 2.87 µM | 2.72 µM | 0.29 µM | 3.01 µM
CCCNc1nc(N(C)O)nc(N(C)O)n1 | > 100 µM | 43.7 µM | > 56.8 µM | > 100 µM | > 100 µM | > 40.8 µM | – | > 56.9 µM | > 100 µM | 97.6 µM | 3.09 µM | 3.15 µM | 0.563 µM | 2.48 µM | 3.46 µM | 0.981 µM | 3.09 µM | 4.75 µM | 1.82 µM
O=C(CCCn1c2c(sc3ncccc32)c(=O)n2nnc(-c3ccccc3)c12)NCCc1cnc[nH]1 | 24 µM | 14.4 µM | 13.1 µM | 32.2 µM | 14.4 µM | 26.7 µM | – | 30.5 µM | 39.5 µM | 32 µM | 1.89 µM | 2.89 µM | 3.66 µM | 15.4 µM | 0.331 µM | 11.9 µM | 16 µM | 17 µM | 16.5 µM
COC(=O)CCC(NC(=S)N/N=C(\C)c1ccccn1)C(=O)OC (stereo not drawn) | > 100 µM | – | > 100 µM | > 100 µM | > 100 µM | > 100 µM | > 100 | > 100 µM | > 100 µM | > 100 µM | – | – | – | – | – | – | – | – | –
Cc1cc(C)nc(NS(=O)(=O)c2ccc(Nc3c4ccccc4nc4c(C(=O)NCCN(C)C)ccc(Cl)c34)cc2)n1 | 12.5 µM | – | 2.7 µM | 4.8 µM | 9.04 µM | 4.62 µM | 4.06 | 3.59 µM | – | 10.2 µM | – | – | – | – | – | – | – | – | –
O=C(c1cc(=O)c2ccc(O)cc2o1)c1ccc(Cl)cc1Cl | > 100 µM | > 100 µM | > 100 µM | > 90.1 µM | > 54.6 µM | > 82.2 µM | – | > 100 µM | > 73.4 µM | > 100 µM | – | – | – | – | – | – | – | – | –
O=C1NC(=NCc2cccs2)SC1Cc1ccc2ncccc2c1 (stereo not drawn) | > 25 µM | > 25 µM | > 25 µM | > 25 µM | > 25 µM | > 25 µM | – | > 25 µM | > 25 µM | > 25 µM | 15.6 µM | 19.5 µM | 11.8 µM | > 25 µM | 9.16 µM | > 23.6 µM | 15 µM | 10.3 µM | 20.1 µM
CN(C)CCNC(=O)c1cccc2nc3ccc4ccccc4c3nc12 | 0.876 µM | 0.541 µM | 0.135 µM | 1.02 µM | 0.313 µM | 0.433 µM | – | 0.256 µM | 0.392 µM | 0.352 µM | – | – | – | – | – | – | – | – | –
COC1=C(OC)C(=O)C(/C=C(\C)C(=O)O)=C(C)C1=O | > 100 µM | > 100 µM | > 100 µM | > 100 µM | > 100 µM | > 100 µM | – | > 100 µM | > 100 µM | > 100 µM | > 100 µM | > 100 µM | > 100 µM | > 100 µM | > 100 µM | > 100 µM | > 100 µM | > 100 µM | > 100 µM
Cc1ccc(SSCCCS(=O)O)cc1 | > 100 µM | > 100 µM | > 100 µM | > 100 µM | > 100 µM | > 100 µM | > 100 | > 100 µM | – | 78.4 µM | – | – | – | – | – | – | – | – | –
Oc1nc(NCCc2ccccc2)sc1/C=C1\C=Nc2ncccc21 | 9.91 µM and 13 µM | 14 µM and > 100 µM | 10.2 µM and 13.6 µM | 11.7 µM and 18.7 µM | 8.09 µM and 11.9 µM | 12.4 µM and 84.6 µM | – | 8.56 µM and 8.7 µM | 8.82 µM and 7.62 µM | 7.86 µM and 9.47 µM | 2.69 µM and 2.71 µM | 2.61 µM and 5.34 µM | 3.01 µM and 3.16 µM | 2.95 µM and 3.69 µM | 1.92 µM and 2.37 µM | 3.53 µM and 3.83 µM | 2.38 µM and 2.93 µM | 1.3 µM and 1.43 µM | 2.47 µM and 3.43 µM
O=C(Oc1cccnc1)c1ccccc1Nc1ccnc(C(F)(F)F)c1 | 2.72 µM | 46.9 µM | > 35 µM | > 100 µM | > 100 µM | > 87.3 µM | – | > 64.6 µM | > 100 µM | 0.214 µM | 0.169 µM | 0.0525 µM | 0.342 µM | 0.207 µM | 0.0498 µM | 3.84 µM | 0.313 µM | 6.64 µM | 0.0473 µM
CCCCCCN(CCCCCC)CCCNc1nccc2ccccc12 | 3.56 µM | 5.33 µM | 2.88 µM | 7.72 µM | 2.96 µM | 3.04 µM | – | 3.41 µM | 2.47 µM | 3.41 µM | 1.81 µM | 1.92 µM | 1.4 µM | 2.09 µM | 1.29 µM | 1.35 µM | 1.69 µM | 1.01 µM | 1.46 µM
CC(C)(O)[C@@H]1CCC(C)([C@H]2[C@@H](O)CC3(C)C4CC(OC5OC(CO)C(O)C(O)C5O)C5C(C)(C)[C@@H](OC6OCC(O)C(O)C6O)CC[C@@]56C[C@@]46CC[C@]23C)O1 (stereo partly drawn) | > 100 µM | – | > 100 µM | > 100 µM | > 100 µM | > 100 µM | > 100 | > 100 µM | > 100 µM | – | – | – | – | – | – | – | – | – | –
